In US20200054651A1, “COMPOSITIONS AND METHODS FOR MODULATING PPP2R1A” (The Regents of the University of California, priority 2017, published 2020) one finds cell proliferation and IC50 data, which are given here for two compounds.

The structures appear in SMILES notation.

Test [1] relates to 231MFP breast cancer cells. In words: 231MFP cell proliferation (Hoechst staining). The test is classed as cell-based. To be noted: 100 μM, 48 h, 231MFP.
Test [2] concerns the target T1, pure human PPP2R1A protein (Homo sapiens, UniProt P30153).
T1 construct: purchased Origene
The test can be described thus: Gel-based ABPP, competition against IAyne labeling. The class given is binding. To be noted: 30 min at 37° C. pre-treatment, IAyne labeling. Here is the method:
Gel-based ABPP methods were performed using the methods described in “Chem Biol 22(10), 1394-1405 (2015)” by Medina-Cleghorn D., et al. Recombinant pure human proteins were purchased from Origene. Pure proteins were pre-treated with DMSO, Withaferin A, or acrylamide or chloroacetamide compounds (e.g., DKM 2-90 or JNS 1-40) for 30 minutes at 37° C. in an incubation volume of PBS (50 μL), and were subsequently treated with IAyne (10 μM final concentration) for 30 minutes at room temperature. CuAAC was performed to append rhodamine-azide onto IAyne probe-labeled proteins. The samples were separated by SDS/PAGE and scanned using a ChemiDoc MP. Inhibition of target labeling was assessed by densitometry using ImageStudio Light software.

T1 sequence (P30153 whole entry): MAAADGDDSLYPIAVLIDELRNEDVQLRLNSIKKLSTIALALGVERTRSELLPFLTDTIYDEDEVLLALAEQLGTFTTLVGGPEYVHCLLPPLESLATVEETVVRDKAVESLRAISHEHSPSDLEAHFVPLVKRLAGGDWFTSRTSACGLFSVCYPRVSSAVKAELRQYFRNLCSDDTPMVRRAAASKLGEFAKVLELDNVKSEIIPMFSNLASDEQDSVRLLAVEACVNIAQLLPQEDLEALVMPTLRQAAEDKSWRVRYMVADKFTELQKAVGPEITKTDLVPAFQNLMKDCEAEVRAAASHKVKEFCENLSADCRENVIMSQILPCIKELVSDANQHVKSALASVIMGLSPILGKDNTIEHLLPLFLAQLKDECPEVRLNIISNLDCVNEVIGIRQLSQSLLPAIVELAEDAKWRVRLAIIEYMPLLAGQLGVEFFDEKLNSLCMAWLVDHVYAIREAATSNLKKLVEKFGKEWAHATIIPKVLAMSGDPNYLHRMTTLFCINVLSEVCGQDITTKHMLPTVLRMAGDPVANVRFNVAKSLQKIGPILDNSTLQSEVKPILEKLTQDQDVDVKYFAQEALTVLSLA

Regarding `O=C(CCl)Nc1cccc2c1CCC2` [DKM 2-91], the cell proliferation entry in test [1] is “lead compounds”. Broadly, the IC50 is the concentration needed to halve the response being measured. Take `O=C(CCl)Nc1ccc2c(c1)CCCC2` [JNS 1-37, 2-Chloro-N-(5,6,7,8-tetrahydronaphthalen-2-yl)acetamide]: the IC50 in test [2] came to 300 µM.
